Measurements taken from patent publication US4861769A, “Cephem compounds” (Fujisawa Pharmaceutical Co., Ltd., priority 1985, dated 1989).
In brackets after ≈: the same amount, converted by molar mass.

How the values were obtained:
Assay type in all cases: cell-based
[1] = tested on: P. mirabilis 1; assay: In vitro antibacterial activity, two-fold agar-plate dilution method (MIC), P. mirabilis 1; details: Proteus mirabilis, heart infusion agar, 37° C., 20 hours, read-out: MIC (minimal inhibitory concentration)
Experimental: (§1) Now in order to show the utility of the object compounds [I], the test data on MIC (minimal inhibitory concentration) of representative compounds [I] of this invention are shown in the following.
(§2) In vitro antibacterial activity was determined by the two-fold agar-plate dilution method as described below.
(§3) One loopful of an overnight culture of each test strain in Trypticase-soy broth (10^6 viable cells per ml) was streaked on heart infusion agar (HI-agar) containing graded concentrations of representative test compound, and the minimal inhibitory concentration (MIC) was expressed in terms of μg/ml after incubation at 37° C. for 20 hours.

[2] = tested on: P. vulgaris IAM 1025; assay: In vitro antibacterial activity, two-fold agar-plate dilution method (MIC), P. vulgaris IAM 1025; details: Proteus vulgaris, IAM1025, heart infusion agar, 37° C., 20 hours, read-out: MIC (minimal inhibitory concentration)
Experimental: as §1, §2, §3

[3] = tested on: E. coli 31; assay: In vitro antibacterial activity, two-fold agar-plate dilution method (MIC), E. coli 31; details: Escherichia coli, heart infusion agar, 37° C., 20 hours, read-out: MIC (minimal inhibitory concentration)
Experimental: as §1, §2, §3

[4] = tested on: S. aureus 209P JC-1; assay: In vitro antibacterial activity, two-fold agar-plate dilution method (MIC), S. aureus 209P JC-1; details: Staphylococcus aureus, heart infusion agar, 37° C., 20 hours, read-out: MIC (minimal inhibitory concentration)
Experimental: as §1, §2, §3

[5] = tested on: E. coli 58; assay: In vitro antibacterial activity, two-fold agar-plate dilution method (MIC), E. coli 58; details: Escherichia coli, heart infusion agar, 37° C., 20 hours, read-out: MIC (minimal inhibitory concentration)
Experimental: as §1, §2, §3

| SMILES | MIC [1] | MIC [2] | MIC [3] | MIC [4] | MIC [5] |
| --- | --- | --- | --- | --- | --- |
| Nc1nc(/C(=N/OC2CC2)C(=O)N[C@@H]2C(=O)N3C(C(=O)O)=C(CSc4nncs4)CS[C@H]23)cs1 [(2)] | 0.05 mg/L (≈ 0.0927 µM) | ≤ 0.025 mg/L | ≤ 0.025 mg/L | 0.39 mg/L (≈ 0.723 µM) | ≤ 0.025 mg/L |
| Nc1nc(/C(=N/OC2CC2)C(=O)N[C@@H]2C(=O)N3C(C(=O)O)=C(CSc4ncns4)CS[C@H]23)cs1 [(5)] | 0.05 mg/L (≈ 0.0927 µM) | ≤ 0.025 mg/L | ≤ 0.025 mg/L | 0.39 mg/L (≈ 0.723 µM) | ≤ 0.025 mg/L |
| Cn1c(SCC2=C(C(=O)O)N3C(=O)[C@@H](NC(=O)/C(=N\OC4CC4)c4csc(N)n4)[C@H]3SC2)n[nH]c(=O)c1=O [(3)] | 0.05 mg/L (≈ 0.0861 µM) | 0.05 mg/L (≈ 0.0861 µM) | ≤ 0.025 mg/L | 0.39 mg/L (≈ 0.672 µM) | ≤ 0.025 mg/L |
| Nc1nc(/C(=N/OC2CC2)C(=O)N[C@@H]2C(=O)N3C(C(=O)[O-])=C(C[n+]4ccccc4)CS[C@H]23)cs1 [(1)] | 0.1 mg/L (≈ 0.2 µM) | 0.05 mg/L (≈ 0.0999 µM) | ≤ 0.025 mg/L | 0.39 mg/L (≈ 0.779 µM) | 0.05 mg/L (≈ 0.0999 µM) |
| CC(=O)OCC1=C(C(=O)O)N2C(=O)[C@@H](NC(=O)/C(=N\OC3CC3)c3csc(N)n3)[C@H]2SC1 [(9)] | 0.05 mg/L (≈ 0.104 µM) | ≤ 0.025 mg/L | 0.05 mg/L (≈ 0.104 µM) | 1.56 mg/L (≈ 3.24 µM) | 0.05 mg/L (≈ 0.104 µM) |
| Nc1nc(/C(=N/OC2CC2)C(=O)N[C@@H]2C(=O)N3C(C(=O)O)=C(CSc4cnns4)CS[C@H]23)cs1 [(8)] | 0.1 mg/L (≈ 0.185 µM) | 0.1 mg/L (≈ 0.185 µM) | ≤ 0.025 mg/L | 0.78 mg/L (≈ 1.45 µM) | 0.05 mg/L (≈ 0.0927 µM) |
| Nc1nc(/C(=N/OC2CC2)C(=O)N[C@@H]2C(=O)N3C(C(=O)[O-])=C(C[n+]4ccccc4)CS[C@H]23)ns1 [(10)] | 0.2 mg/L (≈ 0.399 µM) | 0.1 mg/L (≈ 0.199 µM) | < 0.025 mg/L | 0.78 mg/L (≈ 1.56 µM) | 0.2 mg/L (≈ 0.399 µM) |
| Nc1nc(/C(=N/OC2CC2Cl)C(=O)N[C@@H]2C(=O)N3C(C(=O)O)=C(CSc4nncs4)CS[C@H]23)cs1 (single isomer, unassigned) [(7)] | 0.2 mg/L (≈ 0.348 µM) | ≤ 0.025 mg/L | ≤ 0.025 mg/L | 0.39 mg/L (≈ 0.679 µM) | 0.05 mg/L (≈ 0.0871 µM) |
| Nc1nc(/C(=N/OC2CC2)C(=O)N[C@@H]2C(=O)N3C(C(=O)O)=C(CSc4ccc5nnnn5n4)CS[C@H]23)cs1 [(4)] | 0.1 mg/L (≈ 0.174 µM) | 0.05 mg/L (≈ 0.087 µM) | ≤ 0.025 mg/L | 0.39 mg/L (≈ 0.679 µM) | 0.05 mg/L (≈ 0.087 µM) |
| Nc1nc(/C(=N/OC2CC2(Cl)Cl)C(=O)N[C@@H]2C(=O)N3C(C(=O)[O-])=C(C[n+]4ccccc4)CS[C@H]23)cs1 (some centres unmarked) [(6)] | 1.56 mg/L (≈ 2.74 µM) | 0.05 mg/L (≈ 0.0878 µM) | 0.05 mg/L (≈ 0.0878 µM) | 0.39 mg/L (≈ 0.685 µM) | 0.2 mg/L (≈ 0.351 µM) |
